This passage reports IC50 results from US12187742B2 (XRAD Therapeutics, Inc., priority 2018, dated 2025).

For orientation: IC50 means the concentration that inhibits the measured activity by half. Low values mean inhibition by little substance, high ones a need for much substance.

Where a name gives a salt, the structure may show the parent alone.

The target in one experiment is ATM (Homo sapiens (Human), UniProt Q13315). As to the kind of experiment: ATM in Cell Western Assay (pKAP1 in etoposide-treated MCF-7 cells). In kind it is cell-based. Put shortly: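 Cells received compounds in a 10-dose, 3-fold series from a 1 μM final top concentration, then 100 μM etoposide, for 1 hr at 37° C. They were then fixed with paraformaldehyde and permeabilized with 0.1% Triton X-100. After immunostaining, plates were scanned on an infrared imager.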
ATM, sequence (Q13315 whole entry): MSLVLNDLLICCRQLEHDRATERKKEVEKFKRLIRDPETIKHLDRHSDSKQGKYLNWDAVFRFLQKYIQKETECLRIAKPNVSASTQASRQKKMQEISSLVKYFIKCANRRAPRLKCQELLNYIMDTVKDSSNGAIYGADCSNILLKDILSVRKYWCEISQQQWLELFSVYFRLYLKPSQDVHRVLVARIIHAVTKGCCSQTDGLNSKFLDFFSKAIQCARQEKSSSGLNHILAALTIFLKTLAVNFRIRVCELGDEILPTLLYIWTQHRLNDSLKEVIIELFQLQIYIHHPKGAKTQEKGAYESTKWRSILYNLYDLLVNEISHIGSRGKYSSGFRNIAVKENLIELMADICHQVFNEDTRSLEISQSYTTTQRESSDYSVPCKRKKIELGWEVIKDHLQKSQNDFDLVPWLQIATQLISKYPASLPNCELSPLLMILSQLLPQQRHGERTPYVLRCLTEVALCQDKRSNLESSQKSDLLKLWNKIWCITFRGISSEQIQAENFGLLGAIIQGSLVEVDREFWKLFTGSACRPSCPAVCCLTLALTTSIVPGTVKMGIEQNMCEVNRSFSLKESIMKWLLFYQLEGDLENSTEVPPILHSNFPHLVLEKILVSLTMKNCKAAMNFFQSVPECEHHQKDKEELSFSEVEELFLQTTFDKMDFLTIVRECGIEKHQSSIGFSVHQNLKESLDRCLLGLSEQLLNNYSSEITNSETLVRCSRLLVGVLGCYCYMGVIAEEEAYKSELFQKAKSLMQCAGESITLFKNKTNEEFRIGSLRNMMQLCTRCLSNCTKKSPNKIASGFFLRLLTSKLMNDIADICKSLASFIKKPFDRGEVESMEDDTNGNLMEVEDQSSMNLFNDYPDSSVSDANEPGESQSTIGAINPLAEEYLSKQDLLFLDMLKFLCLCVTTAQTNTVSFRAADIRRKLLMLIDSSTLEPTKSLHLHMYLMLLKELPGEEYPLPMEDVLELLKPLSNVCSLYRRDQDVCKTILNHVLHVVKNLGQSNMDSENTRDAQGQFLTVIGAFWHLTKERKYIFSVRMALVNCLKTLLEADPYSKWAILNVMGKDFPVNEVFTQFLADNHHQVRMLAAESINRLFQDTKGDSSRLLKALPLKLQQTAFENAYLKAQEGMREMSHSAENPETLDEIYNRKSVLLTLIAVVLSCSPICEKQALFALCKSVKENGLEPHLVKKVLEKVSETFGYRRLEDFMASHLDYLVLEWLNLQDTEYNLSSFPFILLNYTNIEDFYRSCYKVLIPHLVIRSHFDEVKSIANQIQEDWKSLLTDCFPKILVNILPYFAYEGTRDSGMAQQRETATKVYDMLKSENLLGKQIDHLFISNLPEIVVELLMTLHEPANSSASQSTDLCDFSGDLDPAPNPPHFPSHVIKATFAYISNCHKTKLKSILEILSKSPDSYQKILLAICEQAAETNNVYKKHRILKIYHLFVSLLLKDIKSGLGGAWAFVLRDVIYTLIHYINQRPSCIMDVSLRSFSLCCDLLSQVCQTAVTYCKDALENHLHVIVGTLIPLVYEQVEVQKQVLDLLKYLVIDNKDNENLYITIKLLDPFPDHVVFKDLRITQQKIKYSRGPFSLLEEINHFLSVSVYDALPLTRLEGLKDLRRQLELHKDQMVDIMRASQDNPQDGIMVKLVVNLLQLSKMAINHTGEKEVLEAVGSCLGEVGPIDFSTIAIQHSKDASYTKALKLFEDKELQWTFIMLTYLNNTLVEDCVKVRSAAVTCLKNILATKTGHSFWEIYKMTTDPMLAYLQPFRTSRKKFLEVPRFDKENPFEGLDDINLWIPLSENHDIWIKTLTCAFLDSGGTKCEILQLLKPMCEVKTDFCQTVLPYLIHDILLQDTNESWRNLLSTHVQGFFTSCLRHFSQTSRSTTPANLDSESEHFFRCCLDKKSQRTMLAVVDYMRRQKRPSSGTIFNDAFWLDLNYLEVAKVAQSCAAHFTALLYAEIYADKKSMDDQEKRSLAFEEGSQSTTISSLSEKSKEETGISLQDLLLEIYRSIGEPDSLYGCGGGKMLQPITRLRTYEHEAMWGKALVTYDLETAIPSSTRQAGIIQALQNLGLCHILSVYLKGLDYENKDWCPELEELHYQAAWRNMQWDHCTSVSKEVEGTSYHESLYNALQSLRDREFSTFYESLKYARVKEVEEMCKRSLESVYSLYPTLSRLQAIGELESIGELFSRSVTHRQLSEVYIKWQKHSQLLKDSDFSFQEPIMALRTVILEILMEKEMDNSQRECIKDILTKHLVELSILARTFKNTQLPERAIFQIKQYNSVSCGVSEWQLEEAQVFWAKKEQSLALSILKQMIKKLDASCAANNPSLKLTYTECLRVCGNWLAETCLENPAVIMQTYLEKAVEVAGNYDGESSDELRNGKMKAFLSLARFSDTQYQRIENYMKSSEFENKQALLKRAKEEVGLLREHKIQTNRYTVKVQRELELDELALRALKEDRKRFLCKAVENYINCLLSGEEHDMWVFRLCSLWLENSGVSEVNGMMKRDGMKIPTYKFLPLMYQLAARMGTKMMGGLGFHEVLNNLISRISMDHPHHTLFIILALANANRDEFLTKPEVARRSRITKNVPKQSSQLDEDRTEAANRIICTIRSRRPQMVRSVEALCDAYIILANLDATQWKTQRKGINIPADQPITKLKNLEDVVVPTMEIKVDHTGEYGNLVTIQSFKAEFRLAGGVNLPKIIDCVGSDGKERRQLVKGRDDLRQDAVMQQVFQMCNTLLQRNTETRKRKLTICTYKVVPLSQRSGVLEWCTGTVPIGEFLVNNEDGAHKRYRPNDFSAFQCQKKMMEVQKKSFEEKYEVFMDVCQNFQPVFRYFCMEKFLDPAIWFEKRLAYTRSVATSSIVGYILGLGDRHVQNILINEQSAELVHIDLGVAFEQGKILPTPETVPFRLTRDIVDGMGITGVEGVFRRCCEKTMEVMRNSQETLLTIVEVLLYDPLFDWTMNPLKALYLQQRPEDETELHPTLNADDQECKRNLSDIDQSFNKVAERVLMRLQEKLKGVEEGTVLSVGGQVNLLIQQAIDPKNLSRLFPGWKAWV

In the next experiment the target is DNA-PK (Homo sapiens (Human), UniProt P78527). As to the kind of experiment: DNA-PK Enzyme-Linked Immunosorbent Assay (phosphorylation of GST-p53 (1-101) peptide). The format is biochemical. To be noted: ELISA. In outline: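 ELISA with plate-bound GST-p53 (1-101) phosphorylated by DNA-PK (0.1 μg/mL final) with 20 μM ATP for 1 h at 25 °C. Compounds tested over 10 3-fold doses from 100 nM top final. Phospho-p53 Ser15 detected by antibody, HRP and TMB, absorbance at 450 nm.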
(In general: An ELISA detects its analyte on a solid surface through an enzyme-linked reagent.)

The mark [1] stands for this setting: MCF-7 cells, etoposide 100 μM, 1 hr, pKAP1 readout.
Where [2] appears, read: pKAP1 in etoposide-treated MCF-7 cells.

As to `Cc1ccc(S(=O)(=O)Nc2cc(-c3ccc4ncc5c(c4c3)C3(CCC3)C(=O)N5C)cnc2OCCCN2CCCCC2)cn1` [Example 142, 6-Methyl-N-(5-(3 methyl-2′-oxo-2′,3′-dihydrospiro[cyclobulane-1,1′-pyrrolo[2,3-c]quinolin]-8′-yl)-2-(3-(piperidin-1-yl)propoxy)pyridin-3-yl)pyridine-3-sulfonamide hydrochloride], the IC50 at ATM (setting [1]) is 1 to 100 nM; against DNA-PK (ATP 20 μM) it was less than 0.5 nM.

With `CO[C@H]1C[C@]2(C1)C(=O)N(C)c1cnc3cc(F)c(-c4cnc(OCCNC(C)C)c(NS(=O)(=O)N(C)C)c4)cc3c12` [Example 389, cis-8′-{5-[(Dimethylsulfamoyl)amino]-6-{2-[(propan-2-yl)amino]ethoxy}pyridine-3-yl}-7′-fluoro-3-Methoxy-3′-methyl-2′,3′-dihydrospiro[cyclobutane-1,1′-pyrrolo[2,3-c]quinoline]-2′-one], the 50% inhibitory concentration (IC50) against ATM (setting [2]) and against DNA-PK (20 μM ATP) was 1 to 100 nM each time.

Consider `CN(C)CCCOc1ncc(-c2ccc3ncc4c(c3c2)C2(CCCC2)C(=O)N4C)cc1NS(=O)(=O)c1ccccc1` [Example 2, N-(2-(3-(Dimethylamino)propoxy)-5-(3′-methyl-2′-oxo-2′,3′-dihydrospiro[cyelopentane-1,1′-pyrrolo[2,3-c]quinolin]-8′-yl)pyridin-3-yl) benzenesulfonamide], for which the concentration for half-maximal inhibition (IC50) at ATM (setting [1]) and at DNA-PK (ATP 20 μM) was 1 to 100 nM throughout.

In the case of `COc1cc(-c2ccc3ncc4c(c3c2)C2(CC2)C(=O)N4C)cnc1OCCCN(C)C` [Example 54, 8′-(6-(3-(Dimethylamino)propoxy)-5-methoxypyridin-3-yl)-3′-methylspiro[cyclopropane-1,1′-pyrrolo[2,3-c]quinolin]-2′(3′-H)-one], the half-inhibitory concentration (IC50) on ATM (setting [1]) is 0.5 to 1 nM; against DNA-PK (ATP 20 μM) it was more than 100 nM.

`CN(C)CCCOc1ncc(-c2ccc3ncc4c(c3c2)C2(CC2)C(=O)N4C)cc1NS(=O)(=O)c1ccc(F)cc1` [Example 88, N-(2-(3-(Dimethylamino)propoxy)-5-(3′-methyl-2′-oxo-2′,3′-dihydrospiro [cyclopropane-1,1′-pyrrolo[2,3-c]quinolin]-8′-yl)pyridin-3-yl)-4-fluorobenzenesulfonamide]: the results for the IC50 against ATM (setting [1]) and at DNA-PK (ATP 20 μM) were 0.5 to 1 nM and less than 0.5 nM, respectively.

Take `COCCS(=O)(=O)Nc1cc(-c2ccc3ncc4c(c3c2)C2(CCC2)C(=O)N4C)cnc1OCCCN(C)C` [Example 266, N-(2-(3-(Dimethylamino)propoxy)-5-(3′-methyl-2′-oxo-2′,3′-dihydrospiro [cyclobutane-1,1′-pyrrolo[2,3-c]quinolin]-8′-yl)pyridin-3-yl)-2-methoxyethane-1-sulfonamide]: the 50% inhibitory concentration (IC50) on ATM (setting [1]) and at DNA-PK (ATP 20 μM) was 1 to 100 nM each time.

On to `COCCS(=O)(=O)Nc1cc(-c2ccc3ncc4c(c3c2)C2(CC2)C(=O)N4C)cnc1OCCCN(C)C` [Example 83, N-(2-(3-(Dimethylamino)propoxy)-5-(3′-methyl-2′-oxo-2′,3′-dihydrospiro [cyclopropane-1,1′-pyrrolo[2,3-c]quinolin]-8′-yl)pyridin-3-yl)-2-methoxyethane-1-sulfonamide], for which the IC50 on ATM (setting [1]) is less than 0.5 nM; at DNA-PK (ATP 20 μM), 1 to 100 nM.

Turning to `CN1C(=O)C2(CC2)c2c1cnc1ccc(-c3cnc4ncccc4c3)cc21` [Example 62, 3′-Methyl-8′-(1,8-naphthyridin-3-yl)spiro[cyclopropane-1,1′-pyrrolo[2,3-c]quinolin]-2′(3′-H)-one], the concentration for half-maximal inhibition (IC50) against ATM (setting [1]) and on DNA-PK (ATP 20 μM) was 1 to 100 nM each time.

For the compound `CC(C)NCCOc1ncc(-c2cc3c(cc2F)ncc2c3[C@]3(C[C@H](c4ccccc4F)C3)C(=O)N2C)cc1NS(C)(=O)=O` [Example 426, cis-N-(5-(7′-Fluoro-3-(2-fluorophenyl)-3′-methyl-2′-oxo-2′,3′-dihydrospiro[cyclobutane-1,1′-pyrrolo[2,3-c]quinolin]-8′-yl)-2-(2-(isopropylamino)ethoxy)pyridin-3-yl)methanesulfonamide], the IC50 on ATM (setting [2]) and on DNA-PK (20 μM ATP) was 1 to 100 nM in each case.

Take `CN1C(=O)C2(CCC2)c2c1cnc1ccc(-c3cnc(N4CC(N(C)C)C4)c(NS(=O)(=O)C4CC4)c3)cc21` [Example 320, N-(2-(3-(Dimethylamino)azetidin-1-yl)-5-(3′-methyl-2′-oxo-2′,3′-dihydrospiro[cyclobulane-1,1′-pyrrolo[2,3-c]quinolin]-8′-yl)pyridin-3-yl)cyclopropanesulfonamide]: the IC50 on ATM (setting [1]) and at DNA-PK (ATP 20 μM) was 1 to 100 nM in each case.

As for `CC(C)NCCOc1ncc(-c2cc3c(cc2F)ncc2c3[C@]3(C[C@H](Nc4ccccc4)C3)C(=O)N2C)cc1NS(C)(=O)=O` [Example 459, cis-N-(5-(7′-Fluoro-3′-methyl-2′-oxo-3-(phenylamino)-2′,3′-dihydrospiro[cyclobutane-1,1′-pyrrolo[2,3-c]quinolin]-8′-yl)-2-(2-(isopropylamino)ethoxy)pyridin-3-yl)methanesulfonamide], the IC50 against ATM (setting [2]) was in the range of 1 to 100 nM; on DNA-PK (20 μM ATP) it was 0.5 to 1 nM.

With `CN(C)c1ncc(-c2ccc3ncc4c(c3c2)C2(CCC2)C(=O)N4C)cc1NS(=O)(=O)c1ccccc1` [Example 10, N-(2-(Dimethylamino)-5-(3′-methyl-2′-oxo-2′,3′-dihydrospiro[cyclobutane-1,1′-pyrrolo[2,3-c]quinolin]-8′-yl)pyridin-3-yl)benzenesulfonamide], the IC50 at ATM (setting [1]) was 1 to 100 nM; at DNA-PK (ATP 20 μM), less than 0.5 nM.

For the compound `CN(C)CCCOc1ncc(-c2ccc3ncc4c(c3c2)C2(CC2)C(=O)N4C)cc1NS(=O)(=O)c1ccccc1` [Example 4, N-(2-(3-(Dimethylamino)propoxy)-5-(3′-methyl-2′-oxo-2′,3′-dihydrospiro[cyclopropane-1,1′-pyrrolo[2,3-c]quinolin]-8′-yl)pyridin-3-yl)benzenesulfonamide], the IC50 on ATM (setting [1]) and against DNA-PK (ATP 20 μM) was less than 0.5 nM throughout.

Regarding `COc1ccc([C@H]2C[C@@]3(C2)C(=O)N(C)c2cnc4cc(F)c(-c5cnc(OCCNC(C)C)c(NS(C)(=O)=O)c5)cc4c23)cn1` [Example 431, trans-N-(5-(7′-Fluoro-3-(6-methoxypyridin-3-yl)-3′-methyl-2′-oxo-2′,3′-dihydrospiro[cyclobutane-1,1′-pyrrolo[2,3-c]quinolin]-8′-yl)-2-(2-(isopropylamino)ethoxy)pyridin-3-yl)methanesulfonamide], the IC50 at ATM (setting [2]) and at DNA-PK (20 μM ATP) was more than 100 nM each time.

For `CN1C(=O)C2(CCC2)c2c1cnc1ccc(-c3cnc(OCCCN4CCCC4)c(NS(=O)(=O)N(C)C)c3)cc21` [Example 242, 8′-(5-[(Dimethylsulfamoyl)amino]-6-[3-(pyrrolidin-1-yl)propoxy]pyridin-3-yl)-3′-methyl-2′,3′-dihydrospiro [cyclobutane-1,1′-pyrrolo[2,3-c]quinoline]-2′-one], the figures for the half-maximal inhibitory concentration (IC50) against ATM (setting [1]) and against DNA-PK (ATP 20 μM) were 0.5 to 1 nM and 1 to 100 nM, respectively.

For `Cc1ccc(S(=O)(=O)Nc2cc(-c3ccc4ncc5c(c4c3)C3(CCC3)C(=O)N5C)cnc2N2CCC(N3CCCCC3)CC2)cn1` [Example 198, N-(2-([1,4′-Bipiperidin]-1′-yl)-5-(3′-methyl-2′-oxo-2′,3′-dihydrospiro[cyclobutane-1,1′-pyrrolo[2,3-c]quinolin]-8′-yl)pyridin-3-yl)-6-methylpyridine-3-sulfonamide hydrochloride], the 50% inhibitory concentration (IC50) against ATM (setting [1]) was 1 to 100 nM; against DNA-PK (ATP 20 μM) it was less than 0.5 nM.

As to `CN(C)CCCOc1ncc(-c2ccc3ncc4c(c3c2)C2(CCC2)C(=O)N4C)cc1NS(=O)(=O)CC#N` [Example 273, 1-Cyano-N-(2-(3-(dimethylamino)propoxy)-5-(3′-methyl-2′-oxo-2′,3′-dihydrospiro[cyclobutane-1,1′-pyrrolo[2,3-c]quinolin]-8′-yl)pyridin-3-yl)methanesulfonamide], the IC50 is 1 to 100 nM against ATM (setting [1]) and less than 0.5 nM against DNA-PK (ATP 20 μM).

Take `Cc1ccc(S(=O)(=O)Nc2cc(-c3ccc4ncc5c(c4c3)C3(CC3)C(=O)N5C)cnc2OCCCN(C)C)cc1` [Example 100, N-(2-(3-(Dimethylamino)propoxy)-5-(3′-methyl-2′-oxo-2′,3′-dihydrospiro [cyclopropane-1,1′-pyrrolo[2,3-c]quinolin]-8′-yl)pyridin-3-yl)-4-methylbenzenesulfonamide]: the IC50 at ATM (setting [1]) is 1 to 100 nM; against DNA-PK (ATP 20 μM), less than 0.5 nM.

Consider `CN1C(=O)C2(CCC2)c2c1cnc1ccc(-c3cnc(N4CCC(N5CCCCC5)CC4)c(NS(=O)(=O)N(C)C)c3)cc21` [Example 208, 8′-(6-{[1,4′-Bipiperidine]-1′-yl}-5-[(dimethylsulfamoyl)amino]pyridin-3-yl)-3′-methyl-2′,3′-dihydrospiro[cyclobutane-1,1′-pyrrolo[2,3-c]quinoline]-2′-one], for which the IC50 at ATM (setting [1]) is 1 to 100 nM; at DNA-PK (ATP 20 μM) it was less than 0.5 nM.

In the case of `Cc1ccccc1N1CC2(C1)C(=O)N(C)c1cnc3cc(F)c(-c4cnc(OCCNC(C)C)c(NS(C)(=O)=O)c4)cc3c12` [Example 528, N-(5-(7′-Fluoro-3′-methyl-2′-oxo-1-(o-tolyl)-2′,3′-dihydrospiro[azetidine-3,1′-pyrrolo[2,3-c]quinolin]-8′-yl)-2-(2-(isopropylamino)ethoxy)pyridin-3-yl)methanesulfonamide], the IC50 against ATM (setting [2]) was 1 to 100 nM; at DNA-PK (20 μM ATP) it was less than 0.5 nM.

Take `CC(C)NCCOc1ncc(-c2cc3c4c(cnc3cc2F)N(C)C(=O)C42CCC2)cc1NS(=O)(=O)N1CCC1` [Example 370, N-(5-(7′-Fluoro-3′-methyl-2′-oxo-2′,3′-dihydrospiro [cyclobutane-1,1′-pyrrolo[2,3-c]quinolin]-8′-yl)-2-(2-(isopropylamino)ethoxy)pyridin-3-yl)azetidine-1-sulfonamide]: the IC50 on ATM (setting [2]) and against DNA-PK (20 μM ATP) was 1 to 100 nM each time.
